# Experimental data as given in ChEMBL document CHEMBL5291721, “A preclinical secondary pharmacology resource illuminates target-adverse drug reaction associations of marketed drugs” (Nat Commun, 2023).
# Key:
# [1] = biological target: T1, Muscarinic acetylcholine receptor M2 (Homo sapiens, UniProt P08172); assay type: functional, cell-based
# T1 sequence (P08172 whole entry): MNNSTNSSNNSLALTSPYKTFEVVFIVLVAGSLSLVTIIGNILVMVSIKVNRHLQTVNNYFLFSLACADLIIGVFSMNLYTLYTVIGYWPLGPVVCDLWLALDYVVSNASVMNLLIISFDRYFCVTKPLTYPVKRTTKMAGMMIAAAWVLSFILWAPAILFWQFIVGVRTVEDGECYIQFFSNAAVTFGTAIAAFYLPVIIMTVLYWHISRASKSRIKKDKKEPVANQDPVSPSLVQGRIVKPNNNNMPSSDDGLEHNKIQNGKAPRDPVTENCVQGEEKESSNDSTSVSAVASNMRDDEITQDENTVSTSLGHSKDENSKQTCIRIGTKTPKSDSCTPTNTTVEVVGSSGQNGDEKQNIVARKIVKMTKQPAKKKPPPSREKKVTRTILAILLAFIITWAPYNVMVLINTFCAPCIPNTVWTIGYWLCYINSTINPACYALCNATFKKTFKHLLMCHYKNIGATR
# D(1A) dopamine receptor = D(1A) dopamine receptor (Homo sapiens, UniProt P21728); assay type: functional, cell-based
# Sequence of D(1A) dopamine receptor (P21728 whole entry): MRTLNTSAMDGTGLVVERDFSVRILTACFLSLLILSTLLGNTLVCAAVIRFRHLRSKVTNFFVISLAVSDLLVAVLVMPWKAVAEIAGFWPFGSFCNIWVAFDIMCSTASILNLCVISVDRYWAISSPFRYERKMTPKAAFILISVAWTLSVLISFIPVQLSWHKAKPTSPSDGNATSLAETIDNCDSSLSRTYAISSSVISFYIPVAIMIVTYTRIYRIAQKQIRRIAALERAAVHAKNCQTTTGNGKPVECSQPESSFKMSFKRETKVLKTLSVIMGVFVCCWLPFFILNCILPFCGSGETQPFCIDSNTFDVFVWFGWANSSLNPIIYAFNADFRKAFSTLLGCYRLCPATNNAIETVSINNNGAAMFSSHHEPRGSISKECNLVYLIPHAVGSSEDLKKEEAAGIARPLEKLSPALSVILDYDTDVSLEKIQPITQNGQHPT
# Progesterone receptor = biological target: T2, Progesterone receptor (Homo sapiens, UniProt P06401); assay type: functional
# T2 sequence (P06401 whole entry): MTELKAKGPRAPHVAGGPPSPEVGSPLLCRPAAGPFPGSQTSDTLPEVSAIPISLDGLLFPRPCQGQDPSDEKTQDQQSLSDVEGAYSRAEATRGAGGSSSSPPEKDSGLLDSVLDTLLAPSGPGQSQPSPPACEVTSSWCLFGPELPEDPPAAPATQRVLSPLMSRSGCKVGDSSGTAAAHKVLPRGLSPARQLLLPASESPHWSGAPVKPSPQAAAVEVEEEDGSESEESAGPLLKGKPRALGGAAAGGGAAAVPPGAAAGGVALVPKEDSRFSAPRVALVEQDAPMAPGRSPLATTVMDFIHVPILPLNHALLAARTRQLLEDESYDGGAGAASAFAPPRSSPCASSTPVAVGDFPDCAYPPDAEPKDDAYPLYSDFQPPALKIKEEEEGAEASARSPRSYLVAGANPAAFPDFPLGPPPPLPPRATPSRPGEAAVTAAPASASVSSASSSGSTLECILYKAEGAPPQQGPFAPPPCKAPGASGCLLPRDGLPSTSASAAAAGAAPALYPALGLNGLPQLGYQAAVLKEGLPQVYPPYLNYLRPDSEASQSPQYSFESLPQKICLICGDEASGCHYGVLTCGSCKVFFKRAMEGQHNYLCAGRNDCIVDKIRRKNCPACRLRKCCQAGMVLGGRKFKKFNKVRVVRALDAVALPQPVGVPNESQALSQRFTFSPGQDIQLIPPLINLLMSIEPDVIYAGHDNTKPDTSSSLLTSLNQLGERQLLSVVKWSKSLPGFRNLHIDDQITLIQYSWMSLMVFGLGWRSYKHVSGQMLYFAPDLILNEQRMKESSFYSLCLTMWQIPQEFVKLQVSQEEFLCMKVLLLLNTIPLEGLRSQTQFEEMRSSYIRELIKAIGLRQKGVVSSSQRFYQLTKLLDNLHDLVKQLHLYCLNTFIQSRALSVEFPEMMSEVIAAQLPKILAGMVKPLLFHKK
# Mu-type opioid receptor = Mu-type opioid receptor (Homo sapiens, UniProt P35372); experiment: biochemical; assay type: functional
# Sequence of Mu-type opioid receptor (P35372 whole entry): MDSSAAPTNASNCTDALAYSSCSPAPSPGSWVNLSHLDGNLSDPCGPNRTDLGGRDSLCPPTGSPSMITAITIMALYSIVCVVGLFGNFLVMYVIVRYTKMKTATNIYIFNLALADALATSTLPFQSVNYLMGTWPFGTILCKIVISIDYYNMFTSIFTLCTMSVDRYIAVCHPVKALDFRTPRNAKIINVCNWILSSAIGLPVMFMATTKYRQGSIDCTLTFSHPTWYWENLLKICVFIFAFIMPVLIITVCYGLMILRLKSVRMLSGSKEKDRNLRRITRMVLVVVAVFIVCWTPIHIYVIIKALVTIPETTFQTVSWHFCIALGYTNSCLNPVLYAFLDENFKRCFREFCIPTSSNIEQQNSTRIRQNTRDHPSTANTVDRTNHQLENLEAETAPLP
# [2] = biological target: T3, 5-hydroxytryptamine receptor 2C (Homo sapiens, UniProt P28335)
# T3 sequence (P28335 whole entry): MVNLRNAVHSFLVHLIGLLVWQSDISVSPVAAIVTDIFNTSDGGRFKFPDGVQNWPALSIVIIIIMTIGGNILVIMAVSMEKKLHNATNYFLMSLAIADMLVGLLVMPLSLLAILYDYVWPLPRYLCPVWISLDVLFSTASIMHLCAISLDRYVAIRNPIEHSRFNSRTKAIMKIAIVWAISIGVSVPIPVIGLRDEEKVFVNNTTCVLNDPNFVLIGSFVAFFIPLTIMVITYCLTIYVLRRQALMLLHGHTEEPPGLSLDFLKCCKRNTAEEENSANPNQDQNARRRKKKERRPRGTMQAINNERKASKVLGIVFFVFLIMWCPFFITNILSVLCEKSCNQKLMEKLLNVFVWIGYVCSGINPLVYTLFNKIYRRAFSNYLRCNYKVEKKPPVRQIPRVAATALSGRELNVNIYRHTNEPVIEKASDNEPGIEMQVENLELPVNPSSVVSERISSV
# [3] = biological target: 5-hydroxytryptamine receptor 2A (Homo sapiens, UniProt P28223); assay type: functional, cell-based
# Sequence of 5-hydroxytryptamine receptor 2A (P28223 whole entry): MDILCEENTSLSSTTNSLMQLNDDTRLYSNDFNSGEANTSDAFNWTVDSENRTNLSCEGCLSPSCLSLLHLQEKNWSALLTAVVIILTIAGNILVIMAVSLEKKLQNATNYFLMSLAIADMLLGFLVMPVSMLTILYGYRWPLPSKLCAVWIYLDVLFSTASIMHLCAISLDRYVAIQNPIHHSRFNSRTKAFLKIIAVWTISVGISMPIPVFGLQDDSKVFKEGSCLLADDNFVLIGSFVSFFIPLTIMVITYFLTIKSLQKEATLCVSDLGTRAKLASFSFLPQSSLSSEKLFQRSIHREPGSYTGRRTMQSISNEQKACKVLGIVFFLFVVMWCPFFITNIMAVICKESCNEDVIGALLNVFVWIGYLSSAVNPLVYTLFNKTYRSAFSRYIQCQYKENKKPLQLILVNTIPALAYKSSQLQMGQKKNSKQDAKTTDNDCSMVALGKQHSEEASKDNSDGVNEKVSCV
# [4] = biological target: Muscarinic acetylcholine receptor M3 (Homo sapiens, UniProt P20309)
# Sequence of Muscarinic acetylcholine receptor M3 (P20309 whole entry): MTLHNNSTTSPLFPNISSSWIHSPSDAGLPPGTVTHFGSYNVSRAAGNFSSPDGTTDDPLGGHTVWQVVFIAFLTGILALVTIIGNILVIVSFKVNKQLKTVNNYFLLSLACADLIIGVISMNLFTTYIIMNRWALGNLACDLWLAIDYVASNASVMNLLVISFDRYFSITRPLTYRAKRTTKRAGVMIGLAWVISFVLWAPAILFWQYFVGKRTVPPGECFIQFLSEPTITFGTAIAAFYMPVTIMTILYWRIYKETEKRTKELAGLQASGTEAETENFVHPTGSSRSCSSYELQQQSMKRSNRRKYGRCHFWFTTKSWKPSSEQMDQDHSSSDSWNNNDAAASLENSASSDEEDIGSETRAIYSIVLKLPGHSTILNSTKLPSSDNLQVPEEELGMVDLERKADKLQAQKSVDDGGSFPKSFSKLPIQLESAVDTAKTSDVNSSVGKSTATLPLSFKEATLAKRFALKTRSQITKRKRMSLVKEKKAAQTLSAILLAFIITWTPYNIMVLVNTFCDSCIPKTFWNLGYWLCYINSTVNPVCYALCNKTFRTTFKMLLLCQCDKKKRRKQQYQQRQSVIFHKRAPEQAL
# [5] = biological target: T4, Neuropeptide Y receptor type 1 (Homo sapiens, UniProt P25929)
# T4 sequence (P25929 whole entry): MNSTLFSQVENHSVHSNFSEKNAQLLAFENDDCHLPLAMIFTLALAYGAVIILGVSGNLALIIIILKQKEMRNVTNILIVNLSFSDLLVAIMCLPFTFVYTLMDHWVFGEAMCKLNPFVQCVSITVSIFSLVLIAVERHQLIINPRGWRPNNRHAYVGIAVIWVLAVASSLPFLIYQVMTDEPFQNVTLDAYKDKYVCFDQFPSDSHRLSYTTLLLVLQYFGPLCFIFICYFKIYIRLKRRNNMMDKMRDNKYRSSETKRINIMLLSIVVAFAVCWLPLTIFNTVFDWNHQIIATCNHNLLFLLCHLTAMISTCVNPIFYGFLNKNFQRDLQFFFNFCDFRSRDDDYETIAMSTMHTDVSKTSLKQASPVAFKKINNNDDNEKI
# [6] = biological target: T5, Alpha-2C adrenergic receptor (Homo sapiens, UniProt P18825); assay type: functional
# T5 sequence (P18825 whole entry): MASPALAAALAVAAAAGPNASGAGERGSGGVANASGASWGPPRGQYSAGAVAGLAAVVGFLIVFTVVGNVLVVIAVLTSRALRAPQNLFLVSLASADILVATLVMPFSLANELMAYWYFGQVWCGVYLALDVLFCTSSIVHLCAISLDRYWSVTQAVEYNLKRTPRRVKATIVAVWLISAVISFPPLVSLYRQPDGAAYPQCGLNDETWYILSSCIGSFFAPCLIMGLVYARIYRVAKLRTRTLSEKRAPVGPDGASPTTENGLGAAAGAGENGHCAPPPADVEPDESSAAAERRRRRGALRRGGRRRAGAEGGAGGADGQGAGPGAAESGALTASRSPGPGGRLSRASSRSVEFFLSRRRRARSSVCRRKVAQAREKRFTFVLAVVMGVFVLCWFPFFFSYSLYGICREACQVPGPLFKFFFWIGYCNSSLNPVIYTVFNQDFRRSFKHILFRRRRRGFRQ
# Also: assay procedure not described here.
SMILES,AC50 [1],AC50 (D(1A) dopamine receptor),AC50 (Progesterone receptor),AC50 (Mu-type opioid receptor),AC50 [2],AC50 [3],AC50 [4],AC50 [5],AC50 [6]
CC(Oc1c(Cl)cccc1Cl)C1=NCCN1 (configuration not stated) [LOFEXIDINE],> 30 µM,> 30 µM,> 30 µM,> 30 µM,> 30 µM,> 30 µM,> 30 µM,> 30 µM,0.42 µM
C=CCC1(CC(C)C)C(=O)NC(=O)NC1=O [BUTALBITAL],> 10 µM,> 30 µM,> 10 µM,> 30 µM,> 30 µM,> 10 µM,> 30 µM,> 10 µM,> 30 µM
O=C(NCCNCC(O)COc1ccc(O)cc1)N1CCOCC1 (configuration not stated) [XAMOTEROL],> 30 µM,> 30 µM,> 30 µM,> 30 µM,> 30 µM,> 30 µM,> 30 µM,> 30 µM,> 30 µM
COc1ccc(CCN(C)CCCC(C#N)(c2cc(OC)c(OC)c(OC)c2)C(C)C)cc1OC (configuration not stated) [GALLOPAMIL],> 30 µM,> 30 µM,> 30 µM,> 30 µM,5 µM,3.6 µM,> 30 µM,> 30 µM,7.6 µM
CC(C)=CCC/C(C)=C/C=C/C(C)=C/C=C/C(C)=C/C=C/C=C(C)/C=C/C=C(C)/C=C/C=C(\C)CCC=C(C)C [LYCOPENE],> 30 µM,> 30 µM,> 30 µM,> 30 µM,> 30 µM,> 30 µM,> 30 µM,> 30 µM,> 30 µM
C[C@]1(O)CC[C@H]2[C@@H]3CCC4=CC(=O)CC[C@]4(C)[C@@]3(F)[C@@H](O)C[C@@]21C [FLUOXYMESTERONE],> 10 µM,> 30 µM,0.074 µM,> 30 µM,> 30 µM,> 10 µM,> 30 µM,> 10 µM,> 30 µM
Nc1nc(/C(=C/CC(=O)O)C(=O)N[C@@H]2C(=O)N3C(C(=O)O)=CCS[C@H]23)cs1 [CEFTIBUTEN],> 30 µM,> 30 µM,> 30 µM,> 30 µM,> 30 µM,> 30 µM,> 30 µM,> 30 µM,> 30 µM
C#C[C@]1(O)CC[C@H]2[C@@H]3CCc4cc(OC5CCCC5)ccc4[C@H]3CC[C@@]21C [QUINESTROL],> 10 µM,> 10 µM,0.221 µM,> 30 µM,> 30 µM,> 10 µM,> 30 µM,> 10 µM,> 10 µM
